According to patent US4933497A, “Preparation of hydroxybenzaldehydes by hydrocarbonylation of halophenols” (Rhone-Poulenc Chimie, priority 1988, dated 1990):

Experiments:
[1] = in water; cited from earlier work
[2] = water
[3] = in water (generally at 25° C.); cited from earlier work

| pKa of the halophenol [2] | Compound | pKa of the phosphine [1] | other results |
| --- | --- | --- | --- |
| – | CCP(CC)CC [triethylphosphine] | 8.69 | – |
| – | c1ccc(P(c2ccccc2)c2ccccc2)cc1 [triphenylphosphine, reference compound] | 2.74 | – |
| ~9.5 | CCOc1cc(Br)ccc1O [4-bromo-2-ethoxyphenol] | – | – |
| – | c1ccc(CP(Cc2ccccc2)Cc2ccccc2)cc1 [tribenzylphosphine] | 6.0 | – |
| – | C1CCC(P(C2CCCCC2)C2CCCCC2)CC1 [tricyclohexylphosphine] | 9.7 | – |
| – | CN(C)c1ccncc1 [4-dimethylaminopyridine] | – | pKa of the conjugate acid of the amine [3]: 9.55 |
| 9.5 | COc1cc(Br)ccc1O [4-bromo-2-methoxyphenol] | – | – |

| Compound | pKa of the halophenol [2] | pKa of the phosphine [1] | other results |
| --- | --- | --- | --- |
| Oc1ccccc1Br [2-bromophenol] | 8.55 | – | – |
